According to US8436178B2, “Imidazoquinolines with immuno-modulating properties” (AstraZeneca AB, priority 2007, dated 2013):
Where a name gives a salt, the structure may show the parent alone.

Target: T1, human TLR7 (Homo sapiens, UniProt Q9NYK1)
T1 construct: expressed in transfected cells; host or cells: HEK293 cell line stably expressing the pNiFty2-SEAP reporter plasmid; TLR7 in pUNO vector, blasticidin selection
T1 sequence (Q9NYK1 27-1049): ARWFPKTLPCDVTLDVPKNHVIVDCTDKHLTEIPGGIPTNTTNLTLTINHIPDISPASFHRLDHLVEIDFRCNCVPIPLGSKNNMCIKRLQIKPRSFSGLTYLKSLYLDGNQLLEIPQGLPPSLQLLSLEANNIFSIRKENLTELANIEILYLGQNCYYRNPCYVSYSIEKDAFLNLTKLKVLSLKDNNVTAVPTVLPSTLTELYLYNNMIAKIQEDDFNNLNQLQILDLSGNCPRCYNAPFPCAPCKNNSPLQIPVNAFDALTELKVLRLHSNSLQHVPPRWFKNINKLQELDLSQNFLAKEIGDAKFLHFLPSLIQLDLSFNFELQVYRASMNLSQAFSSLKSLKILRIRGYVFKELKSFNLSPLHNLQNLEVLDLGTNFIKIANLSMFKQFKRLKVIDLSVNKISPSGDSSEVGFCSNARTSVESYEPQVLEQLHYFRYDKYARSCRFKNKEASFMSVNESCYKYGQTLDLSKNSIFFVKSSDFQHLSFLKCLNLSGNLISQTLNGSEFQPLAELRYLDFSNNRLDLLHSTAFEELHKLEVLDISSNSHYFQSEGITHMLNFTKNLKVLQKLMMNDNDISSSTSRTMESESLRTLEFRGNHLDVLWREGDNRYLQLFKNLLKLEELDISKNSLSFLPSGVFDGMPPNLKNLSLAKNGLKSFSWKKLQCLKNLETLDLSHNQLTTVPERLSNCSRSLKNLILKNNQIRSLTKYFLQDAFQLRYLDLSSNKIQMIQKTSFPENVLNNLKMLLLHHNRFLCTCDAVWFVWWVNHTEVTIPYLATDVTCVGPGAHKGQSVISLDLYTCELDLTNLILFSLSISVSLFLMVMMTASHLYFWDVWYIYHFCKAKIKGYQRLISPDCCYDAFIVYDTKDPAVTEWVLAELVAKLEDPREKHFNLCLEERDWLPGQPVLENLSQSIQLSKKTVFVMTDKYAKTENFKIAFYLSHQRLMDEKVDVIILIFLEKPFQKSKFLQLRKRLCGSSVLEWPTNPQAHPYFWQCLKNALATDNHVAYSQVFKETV
Test: Human TLR7 assay (SEAP reporter in HEK293 cells)
Format: cell-based
Details: SEAP induction in HEK293 cells expressing human TLR7, overnight incubation at 37° C., 0.1% DMSO

SMILES	EC50 [nM]
CCCCc1nc2c(N)nc3ccccc3c2n1CCCNCc1ccc(CC(=O)OC)cc1 [Example 1, Methyl 2-(4-((3-(4-amino-2-butyl-1H-imidazo[4,5-c]quinolin-1-yl)propylamino)methyl)phenyl)acetate]	316
CCCCc1nc2c(N)nc3ccccc3c2n1CCCNCc1cccc(CC(=O)OC)c1 [Example 2, Methyl 2-(3-((3-(4-amino-2-butyl-1H-imidazo[4,5-c]quinolin-1-yl)propylamino)methyl)phenyl)acetate]	398
CCCCc1nc2c(N)nc3ccccc3c2n1CCCN(Cc1cccc(CC(=O)OC)c1)C(=O)CN(C)C [Example 4, Methyl 2-(3-((N-(3-(4-amino-2-butyl-1H-imidazo[4,5-c]quinolin-1-yl)propyl)-2-(dimethylamino)acetamido)methyl)phenyl)acetate]	39.8
CCOCc1nc2c(N)nc3ccccc3c2n1CC1CCN(Cc2cccc(CC(=O)OC)c2)CC1 [Example 5, di-trifluoroacetate salt]	316
CCCCc1nc2c(N)nc3ccccc3c2n1CCCN(CCN(C)C)Cc1ccc(CC(=O)OC)cc1 [Example 6, Methyl[4-({[3-(4-amino-2-butyl-1H-imidazo[4,5-c]quinolin-1-yl)propyl][2-(dimethylamino)ethyl]amino}methyl)phenyl]acetate]	251
CCOCc1nc2c(N)nc3ccccc3c2n1CCCN(Cc1cccc(CC(=O)OC)c1)C(=O)CN(C)C [Example 7, Methyl 2-(3-((N-(3-(4-amino-2-(ethoxymethyl)-1H-imidazo[4,5-c]quinolin-1-yl)propyl)-2-(dimethylamino)acetamido)methyl)phenyl)acetate]	398
CCCCc1nc2c(N)nc3ccccc3c2n1CCCN(Cc1cccc(CC(=O)OC)c1)C1CCN(C)CC1 [Example 8, Methyl 2-(3-(((3-(4-amino-2-butyl-1H-imidazo[4,5-c]quinolin-1-yl)propyl)(1-methylpiperidin-4-yl)amino)methyl)phenyl)acetate]	316
CCCCc1nc2c(N)nc3ccccc3c2n1CCCN(Cc1ccc(CC(=O)OC)cc1)C1CCN(C)CC1 [Example 9, Methyl 2-(4-(((3-(4-amino-2-butyl-1H-imidazo[4,5-c]quinolin-1-yl)propyl)(1-methylpiperidin-4-yl)amino)methyl)phenyl)acetate]	631
CCCCc1nc2c(N)nc3ccccc3c2n1CCCN(Cc1ccc(CC(=O)OC)cc1)C(=O)CN1CCN(C)CC1 [Example 10, Methyl 2-(4-((N-(3-(4-amino-2-butyl-1H-imidazo[4,5-c]quinolin-1-yl)propyl)-2-(4-methylpiperazin-1-yl)acetamido)methyl)phenyl)acetate]	501
CCCCc1nc2c(N)nc3ccccc3c2n1CCCN(CCCN(C)C)Cc1cccc(CC(=O)OC)c1 [Example 11, Methyl 2-(3-(((3-(4-amino-2-butyl-1H-imidazo[4,5-c]quinolin-1-yl)propyl)(3-(dimethylamino)propyl)amino)methyl)phenyl)acetate]	251
CCCCc1nc2c(N)nc3ccccc3c2n1CCCN(CCCN1CCOCC1)Cc1cccc(CC(=O)OC)c1 [Example 12, Methyl 2-(3-(((3-(4-amino-2-butyl-1H-imidazo[4,5-c]quinolin-1-yl)propyl)(3-morpholinopropyl)amino)methyl)phenyl)acetate]	251
CCCCc1nc2c(N)nc3ccccc3c2n1CCCN(CCCN(C)CC)Cc1cccc(CC(=O)OC)c1 [Example 13, Methyl 2-(3-(((3-(4-amino-2-butyl-1H-imidazo[4,5-c]quinolin-1-yl)propyl)(3-(ethyl(methyl)amino)propyl)amino)methyl)phenyl)acetate]	158
CCCCc1nc2c(N)nc3ccccc3c2n1CCCN(CCCN1CCN(C)CC1)Cc1cccc(CC(=O)OC)c1 [Example 14, Methyl 2-(3-(((3-(4-amino-2-butyl-1H-imidazo[4,5-c]quinolin-1-yl)propyl)(3-(4-methylpiperazin-1-yl)propyl)amino)methyl)phenyl)acetate]	251
